In article PMC11879040, “Advancing systemic toxicity risk assessment: Evaluation of a NAM-based toolbox approach” (Toxicological Sciences, 2024):
≈ marks a conversion by molar mass, not a printed value. Read-outs that look alike come from different tables or passages of the source.

Key:
[1] = system: Sodium channel protein type 5 subunit alpha (site 2), SCN5A (r); format: binding, rat
[2] = system: HepaRG cells; assay: High-throughput transcriptomics (HTTr, TempO-Seq), HepaRG, 24 h; format: cell-based, human; details: HepaRG; for pod_httr_bifrost PoD: HTTr BIFROST PoD; for podl_path_minbmd PoD: HTTr minimum pathway BMD(L)
Description: (§1) HepG2, HepaRG, and MCF7 cells were treated with each compound for 24 h across a dose range of 7 concentrations and lysed using TempO-Seq lysis buffer (BioSpyder Technologies, proprietary kit, see [Middleton et al. 2022] for method details). Sequencing was performed using TempO-Seq (BioClavis) version 2 of the human whole transcriptome panel and analyzed as described previously in Middleton et al.

[3] = cited from earlier work
[4] = target: T1, Adenosine receptor A2a, ADORA2A (h) (Homo sapiens, UniProt P29274); assay: IPP ADORA2A binding (agonist radioligand); details: IPP screening at 10 uM; control NECA
T1 construct: purchased Eurofins Cerep (SafetyScreen44-based IPP panel)

[5] = system: HepG2 cells; assay: Cell stress panel (CSP), 24 h, 8 concentrations, BIFROST global PoD; format: cell-based; details: for pod_cell_stress PoD: HepG2, cell stress panel PoD
Description: Compounds were tested using the previously developed cell stress panel ([Hatherell et al. 2020]) and the expanded biomarker panel outlined in Middleton et al. HepG2 cells were treated with all compounds for 24 h across 8 concentrations prior to biomarker analysis. The same plate layout and number of replicates (3 biological and 2 technical) were used as previously for each assay within the panel.

[6] = system: rat; details: cited from earlier work
[7] = system: MCF7 cells; assay: High-throughput transcriptomics (HTTr, TempO-Seq), MCF7, 24 h; format: cell-based, human; details: MCF-7; for pod_httr_bifrost PoD: HTTr BIFROST PoD; for podl_path_minbmd PoD: HTTr minimum pathway BMD(L)
Description: as §1

[8] = target: Voltage-dependent L-type Ca2+ channel (dihydropyridine site), CACNA1C (r) (Rattus norvegicus, UniProt P22002); format: binding
[9] = system: Tubulin (r); assay: IPP Tubulin binding; set-up: species or system rat; details: 10 uM; ligand/control Colchicine
[10] = human
[11] = system: Glutamate receptor ionotropic NMDA 1 non-selective, GRIN1 (r)
[12] = physchem; details: pH 5.22, water
[13] = system: Potassium Voltage-Gated Channel Kv non-selective, KCNQ1 (r); assay: IPP KCNQ1 binding (antagonist radioligand); set-up: species or system rat; details: IPP screening at 10 uM; control α-dendrotoxin
[14] = human; remark: listed apart in the source
[15] = system: Thyroid hormone receptor alpha, THRA (h); assay: IPP THRA coactivator recruitment (agonist); format: biochemical, human; details: 10 uM; agonist; T3
[16] = system: HepG2 cells; assay: High-throughput transcriptomics (HTTr, TempO-Seq), HepG2, 24 h; format: cell-based, human; details: HepG2; for pod_httr_bifrost PoD: HTTr BIFROST PoD; for podl_path_minbmd PoD: HTTr minimum pathway BMD(L)
Description: as §1

[17] = system: Gamma-aminobutyric acid receptor subunit alpha-1 BZD site, GABRA1A (r); format: binding, rat
[18] = target: T2, Estrogen receptor, ER1 (h) (Homo sapiens, UniProt P03372); assay: IPP ER1 coactivator recruitment (agonist); format: biochemical; details: 10 uM, estriol
T2 construct: purchased Eurofins Cerep (SafetyScreen44-based IPP panel)
T2 sequence (P03372 1-595): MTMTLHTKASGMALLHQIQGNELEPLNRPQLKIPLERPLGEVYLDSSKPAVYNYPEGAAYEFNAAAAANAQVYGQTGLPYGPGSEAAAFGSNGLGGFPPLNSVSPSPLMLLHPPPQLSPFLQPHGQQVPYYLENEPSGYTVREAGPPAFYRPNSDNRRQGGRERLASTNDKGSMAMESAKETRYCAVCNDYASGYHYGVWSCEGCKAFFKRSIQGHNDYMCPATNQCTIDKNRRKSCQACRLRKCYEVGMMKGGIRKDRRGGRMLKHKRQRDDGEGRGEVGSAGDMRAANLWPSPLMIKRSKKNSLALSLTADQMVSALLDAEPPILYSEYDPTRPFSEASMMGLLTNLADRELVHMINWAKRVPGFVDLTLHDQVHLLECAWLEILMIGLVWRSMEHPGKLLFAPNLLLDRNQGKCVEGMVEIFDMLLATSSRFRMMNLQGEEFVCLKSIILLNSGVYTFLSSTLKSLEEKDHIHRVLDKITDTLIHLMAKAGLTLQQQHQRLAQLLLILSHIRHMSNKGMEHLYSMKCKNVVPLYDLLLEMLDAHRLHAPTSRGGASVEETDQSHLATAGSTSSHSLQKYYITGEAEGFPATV

[19] = target: Potassium voltage-gated channel subfamily H member 2 hERG, KCNH2 (h) (Homo sapiens, UniProt Q12809); details: 10 uM; [3H] Dofetilide; control Terfenadine
[20] = system: 63 targets with known safety liabilities; assay: In vitro pharmacological profiling (IPP) panel, screening at 10 or 100 µM and dose response, minimum IC50/AC50; format: biochemical; details: lowest AC50 across IPP panel (systemic targets); cell_type -; read-out: ipp_lowest_ac50_systemic PoD
[21] = target: T2, Estrogen receptor, ER1 (h); assay: IPP ER1 coactivator recruitment (antagonist); format: biochemical; details: 10 uM, estriol
[22] = target: 5-hydroxytryptamine receptor 2B, HTR2B (h) (Homo sapiens, UniProt P41595); assay: biochemical
[23] = system: dog; details: 52 weeks, ref ToxRefDB/Paul-Friedman et al. (2020)/regulatory opinions; cited from earlier work
[24] = IV bolus 100 mg solution, 20 renal transplant patients, validation, ref Lin et al. 1980
[25] = IV bolus 100 mg solution, uremic patients, validation, ref Odlind et al. 1986
[26] = Oral tablet 100 mg, fasted, uremic patients, calibration, ref Odlind et al. 1986

T1 sequence (P29274 whole entry): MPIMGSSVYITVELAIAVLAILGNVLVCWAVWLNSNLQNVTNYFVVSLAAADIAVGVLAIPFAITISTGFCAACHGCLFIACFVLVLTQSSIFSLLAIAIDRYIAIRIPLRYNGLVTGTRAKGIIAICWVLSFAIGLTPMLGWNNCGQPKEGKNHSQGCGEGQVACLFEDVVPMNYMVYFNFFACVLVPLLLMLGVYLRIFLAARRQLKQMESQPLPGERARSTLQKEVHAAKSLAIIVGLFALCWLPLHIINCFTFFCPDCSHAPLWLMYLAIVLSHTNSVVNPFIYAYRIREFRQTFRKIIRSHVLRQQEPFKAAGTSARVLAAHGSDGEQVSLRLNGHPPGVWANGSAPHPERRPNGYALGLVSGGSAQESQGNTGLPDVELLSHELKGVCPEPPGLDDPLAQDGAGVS
Chain of Voltage-dependent L-type Ca2+ channel (dihydropyridine site), CACNA1C (r) (P22002 whole entry): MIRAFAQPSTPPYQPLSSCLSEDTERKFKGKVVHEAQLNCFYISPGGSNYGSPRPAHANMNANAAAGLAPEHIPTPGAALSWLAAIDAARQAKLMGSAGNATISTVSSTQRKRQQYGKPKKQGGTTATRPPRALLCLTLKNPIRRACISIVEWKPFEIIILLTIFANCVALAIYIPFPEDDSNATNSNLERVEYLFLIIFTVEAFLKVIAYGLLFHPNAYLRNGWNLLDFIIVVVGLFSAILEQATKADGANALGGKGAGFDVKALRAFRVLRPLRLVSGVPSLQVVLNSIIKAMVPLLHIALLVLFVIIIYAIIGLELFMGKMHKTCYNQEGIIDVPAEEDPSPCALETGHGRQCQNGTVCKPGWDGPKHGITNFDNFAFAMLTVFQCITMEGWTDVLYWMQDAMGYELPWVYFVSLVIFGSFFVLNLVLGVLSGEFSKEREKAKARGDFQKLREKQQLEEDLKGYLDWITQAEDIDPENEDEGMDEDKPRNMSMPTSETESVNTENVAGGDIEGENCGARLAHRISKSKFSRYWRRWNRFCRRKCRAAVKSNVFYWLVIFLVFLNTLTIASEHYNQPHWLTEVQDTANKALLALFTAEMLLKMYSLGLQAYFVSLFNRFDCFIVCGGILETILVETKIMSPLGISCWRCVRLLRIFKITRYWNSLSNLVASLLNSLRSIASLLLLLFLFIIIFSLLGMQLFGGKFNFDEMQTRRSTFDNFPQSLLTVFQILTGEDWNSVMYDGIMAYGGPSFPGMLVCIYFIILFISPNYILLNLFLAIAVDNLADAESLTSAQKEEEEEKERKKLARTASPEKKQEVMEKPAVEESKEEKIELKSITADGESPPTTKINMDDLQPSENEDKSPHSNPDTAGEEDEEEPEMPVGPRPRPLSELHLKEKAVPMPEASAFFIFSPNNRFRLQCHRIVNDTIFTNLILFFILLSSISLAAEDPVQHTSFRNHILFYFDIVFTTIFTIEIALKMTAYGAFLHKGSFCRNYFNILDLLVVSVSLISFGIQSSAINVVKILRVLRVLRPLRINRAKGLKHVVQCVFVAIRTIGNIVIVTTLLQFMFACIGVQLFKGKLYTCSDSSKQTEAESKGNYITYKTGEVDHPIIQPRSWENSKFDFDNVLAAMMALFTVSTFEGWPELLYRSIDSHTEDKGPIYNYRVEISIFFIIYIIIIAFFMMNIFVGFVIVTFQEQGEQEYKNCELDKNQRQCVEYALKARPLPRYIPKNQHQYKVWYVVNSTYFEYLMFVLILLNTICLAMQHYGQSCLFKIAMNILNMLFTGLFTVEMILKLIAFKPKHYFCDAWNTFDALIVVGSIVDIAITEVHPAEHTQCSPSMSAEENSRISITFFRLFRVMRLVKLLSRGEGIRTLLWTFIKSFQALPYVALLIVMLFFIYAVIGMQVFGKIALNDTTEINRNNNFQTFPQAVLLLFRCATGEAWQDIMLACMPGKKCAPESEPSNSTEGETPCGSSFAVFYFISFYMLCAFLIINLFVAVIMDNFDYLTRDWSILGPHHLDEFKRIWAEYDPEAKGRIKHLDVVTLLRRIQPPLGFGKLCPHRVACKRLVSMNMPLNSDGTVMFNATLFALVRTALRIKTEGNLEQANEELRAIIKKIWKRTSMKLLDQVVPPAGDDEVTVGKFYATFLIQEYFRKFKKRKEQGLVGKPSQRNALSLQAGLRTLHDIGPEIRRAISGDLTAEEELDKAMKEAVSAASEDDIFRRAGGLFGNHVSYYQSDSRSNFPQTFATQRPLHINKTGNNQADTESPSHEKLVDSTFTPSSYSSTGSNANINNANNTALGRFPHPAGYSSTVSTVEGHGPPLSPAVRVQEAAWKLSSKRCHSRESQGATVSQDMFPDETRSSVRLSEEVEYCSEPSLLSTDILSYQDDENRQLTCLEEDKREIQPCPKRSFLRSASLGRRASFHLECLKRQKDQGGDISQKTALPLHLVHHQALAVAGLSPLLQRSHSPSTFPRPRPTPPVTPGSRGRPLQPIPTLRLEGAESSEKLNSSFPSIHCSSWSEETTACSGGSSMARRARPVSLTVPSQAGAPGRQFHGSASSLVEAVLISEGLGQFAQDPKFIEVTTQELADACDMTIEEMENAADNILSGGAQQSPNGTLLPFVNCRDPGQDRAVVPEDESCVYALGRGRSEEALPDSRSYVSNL
Chain of 5-hydroxytryptamine receptor 2B, HTR2B (h) (P41595 whole entry): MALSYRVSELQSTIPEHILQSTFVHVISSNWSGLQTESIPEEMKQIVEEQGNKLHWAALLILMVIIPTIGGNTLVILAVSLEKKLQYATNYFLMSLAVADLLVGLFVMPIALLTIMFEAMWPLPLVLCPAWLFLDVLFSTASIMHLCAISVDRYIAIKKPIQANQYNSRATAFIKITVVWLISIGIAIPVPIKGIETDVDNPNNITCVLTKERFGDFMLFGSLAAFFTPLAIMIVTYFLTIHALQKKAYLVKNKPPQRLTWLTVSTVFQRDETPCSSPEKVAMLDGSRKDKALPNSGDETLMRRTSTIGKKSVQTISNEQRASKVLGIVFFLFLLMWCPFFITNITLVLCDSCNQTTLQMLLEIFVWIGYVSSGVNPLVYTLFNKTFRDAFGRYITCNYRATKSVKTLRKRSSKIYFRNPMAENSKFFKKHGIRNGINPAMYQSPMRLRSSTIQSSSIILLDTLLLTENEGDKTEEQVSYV
Chain of Potassium voltage-gated channel subfamily H member 2 hERG, KCNH2 (h) (Q12809 whole entry): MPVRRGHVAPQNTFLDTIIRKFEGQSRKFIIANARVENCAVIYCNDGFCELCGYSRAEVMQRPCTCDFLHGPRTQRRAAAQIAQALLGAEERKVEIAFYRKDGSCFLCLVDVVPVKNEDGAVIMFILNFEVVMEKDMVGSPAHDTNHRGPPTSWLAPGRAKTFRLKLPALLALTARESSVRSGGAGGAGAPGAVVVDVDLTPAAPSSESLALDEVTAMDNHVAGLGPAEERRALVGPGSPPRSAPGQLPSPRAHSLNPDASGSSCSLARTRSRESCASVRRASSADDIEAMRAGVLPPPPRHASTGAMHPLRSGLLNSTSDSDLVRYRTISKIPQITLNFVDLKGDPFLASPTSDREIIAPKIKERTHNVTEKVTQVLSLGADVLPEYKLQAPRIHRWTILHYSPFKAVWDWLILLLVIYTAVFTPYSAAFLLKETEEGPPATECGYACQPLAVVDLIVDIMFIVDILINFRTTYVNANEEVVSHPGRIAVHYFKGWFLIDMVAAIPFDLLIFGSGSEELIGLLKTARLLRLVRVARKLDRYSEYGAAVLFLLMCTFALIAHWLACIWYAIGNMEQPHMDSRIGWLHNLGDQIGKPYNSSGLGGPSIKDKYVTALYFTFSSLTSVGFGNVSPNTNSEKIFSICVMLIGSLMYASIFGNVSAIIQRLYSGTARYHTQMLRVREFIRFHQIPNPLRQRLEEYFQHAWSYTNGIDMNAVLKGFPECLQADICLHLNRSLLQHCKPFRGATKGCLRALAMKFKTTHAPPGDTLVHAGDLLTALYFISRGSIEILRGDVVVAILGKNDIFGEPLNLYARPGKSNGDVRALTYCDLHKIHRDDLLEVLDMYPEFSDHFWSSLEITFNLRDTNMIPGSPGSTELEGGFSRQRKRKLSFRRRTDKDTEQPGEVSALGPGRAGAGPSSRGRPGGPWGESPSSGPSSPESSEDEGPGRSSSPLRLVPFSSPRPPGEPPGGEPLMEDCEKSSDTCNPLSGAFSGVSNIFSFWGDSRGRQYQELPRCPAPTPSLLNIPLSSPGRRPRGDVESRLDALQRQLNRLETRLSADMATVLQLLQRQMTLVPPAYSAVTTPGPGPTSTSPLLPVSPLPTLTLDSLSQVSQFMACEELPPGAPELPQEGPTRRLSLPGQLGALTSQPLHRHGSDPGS

Cn1cnc([N+](=O)[O-])c1Sc1ncnc2nc[nH]c12 [Azathioprine, 6-[(1-Methyl-4-nitro-1H-imidazol-5-yl)sulfanyl]-7H-purine]
Specific binding [1]: -8.7%
pod_httr_bifrost PoD [2]: 0.8426 µM
podl_path_minbmd PoD [2]: 3.742 µM
Reported AUC0-t [3, 24]: 430 ng·h/mL
Reported cmax [3, 24]: 0.9163 µg/mL
Reported tmax [3, 24]: 0 min
Reported AUC0-t [3, 25]: 1032.5 ng·h/mL
Reported cmax [3, 25]: 0.7498 µg/mL
Reported tmax [3, 25]: 7.524 min
Reported AUC0-t [3, 26]: 100 ng·h/mL
Reported cmax [3, 26]: 0.0478 µg/mL
Reported tmax [3, 26]: 32.87 min
Specific binding [4]: 38.3%
Bioactivity Observations: cell stress panel [5]: The leading PoD is extrapolated below the lowest dose tested in the CSP
pod_cell_stress PoD [5]: 3.96e-05 µM
PoD (NOAEL) ([6]; rat, 28 days, haematological changes, ref ToxRefDB/Paul-Friedman et al. (2020)/regulatory opinions): 3 mg/kg bw/day
pod_httr_bifrost PoD [7]: 0.1265 µM
podl_path_minbmd PoD [7]: 0.2237 µM
Specific binding [8]: -9.0%
IPP screening %, Specific binding [9]: 6.0%
Intrinsic Liver Clearance [10]: 4323.84 L/h
Specific binding [11]: 4.2%
solubility [12]: 231 µg/mL (≈ 833 µM)
Specific binding [13]: 1.0%
risk [14]: 1
IPP screening %, Coactivator recruitment [15]: 3.0%
pod_httr_bifrost PoD [16]: 0.01764 µM
podl_path_minbmd PoD [16]: 0.1634 µM
Specific binding [17]: 17.2%

CC1(C)C(C=C(Cl)Cl)C1C(=O)OC(C#N)c1cccc(Oc2ccccc2)c1 (centres unmarked) [Cypermethrin, Cyano(3-phenoxyphenyl)methyl 3-(2,2-dichloroethenyl)-2,2-dimethylcyclopropane-1-carboxylate]
Specific binding ([1]; IPP screening at 10 uM, control veratridine): -112.7%
pod_httr_bifrost PoD [2]: 4.402 µM
podl_path_minbmd PoD [2]: 35.2754 µM
IPP screening %, Coactivator recruitment [18]: 0.0%
Specific binding [4]: 0.1%
pod_cell_stress PoD [5]: 7.881 µM
IPP screening %, Specific binding [19]: 22.7%
Lowest NOAEL ([6]; rat chronic study, route of administration not reported, ref not given): Lowest NOAEL is 0.5 mg/kg from a rat chronic study, but the route of administration isn't reported. 1 mg/kg/day is NOAEL from 52 week dog study
pod_httr_bifrost PoD [7]: 8.9686 µM
podl_path_minbmd PoD [7]: 25.4106 µM
IPP screening %, Specific binding [9]: 8.0%
Specific binding ([11]; IPP screening at 10 uM, control CGS 19755): 11.4%
AC50 [20]: 490 nM
IPP screening %, Coactivator recruitment [21]: 0.0%
Specific binding [13]: 0.9%
IC50 [22]: > 570 nM
IPP screening %, Coactivator recruitment [15]: 0.0%
pod_httr_bifrost PoD [16]: 2.669 µM
podl_path_minbmd PoD [16]: 2.638 µM
Specific binding ([17]; IPP screening at 10 uM, control diazepam): 5.5%
PoD (NOAEL) [23]: 1 mg/kg bw/day
